Test results taken from publication PMC8301998, “Discovery of Novel Allosteric Modulators Targeting an Extra-Helical Binding Site of GLP-1R Using Structure- and Ligand-Based Virtual Screening” (Biomolecules, 2021).
pEC50, pIC50: −log10 of the molar value. Like-named read-outs stand apart in the source and are kept apart here. Each block holds one molecule with its values, some of them ahead of it.

Experiments:
GLP-1R [1] = target: T1, GLP-1R (Homo sapiens, UniProt P43220); conditions: for Modulation of GLP-1-elicited cAMP accumulation / GLP-1 potency (in words): GLP-1R expressing CHO-K1 cells
T1 sequence (P43220 24-463): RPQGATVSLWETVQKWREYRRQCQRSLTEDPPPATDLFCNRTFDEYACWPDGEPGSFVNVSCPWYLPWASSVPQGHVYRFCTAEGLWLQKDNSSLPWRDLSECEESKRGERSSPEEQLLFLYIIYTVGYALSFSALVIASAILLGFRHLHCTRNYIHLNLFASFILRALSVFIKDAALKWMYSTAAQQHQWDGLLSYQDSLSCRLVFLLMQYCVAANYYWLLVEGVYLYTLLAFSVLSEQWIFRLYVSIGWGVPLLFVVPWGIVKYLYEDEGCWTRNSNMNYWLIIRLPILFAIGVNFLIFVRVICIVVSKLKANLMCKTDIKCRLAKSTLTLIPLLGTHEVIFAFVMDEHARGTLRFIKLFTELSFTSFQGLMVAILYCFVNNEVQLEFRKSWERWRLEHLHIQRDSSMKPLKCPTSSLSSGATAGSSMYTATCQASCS
Experimental: (§1) cAMP accumulation was measured using the LANCE Ultra cAMP kit (PerkinElmer, Boston, MA, USA) according to the manufacturer’s instructions. […] Cells were then resuspended with assay buffer (DMEM, 0.1% BSA, 5 mM HEPES) and seeded onto 384-well plates (6 × 10^5/mL, 5 μL/well). […] After the addition of 5 μL of Eu-cAMP tracer and ULight-anti-cAMP, the reactions were stopped. The plates were left for 1 h at room temperature to measure time-resolved FRET signals at excitation wavelengths of 620 nm and 665 nm by EnVision (PerkinElmer, Waltham, MA, USA).

GLP-1R [2] = target: T1, GLP-1R; conditions: for Effect on binding of GLP-1 to GLP-1R (in words): radiolabeled GLP-1, WT GLP-1R
Experimental: (§2) For homogeneous binding, cells were washed twice and incubated with a blocking buffer (F12 supplemented with 33 mM HEPES, and 0.1% (w/v) BSA, pH 7.4) for 2 h at 37 °C. […] Cells were washed three times with ice-cold PBS and lysed using 50 μL of lysis buffer (PBS supplemented with 20 mM Tris–HCl and 1% Triton X-100, pH 7.4). Subsequently, the plates were counted for radioactivity (counts per minute, CPM) in a scintillation counter (MicroBeta^2 Plate Counter, PerkinElmer, Waltham, MA, USA) using a scintillation cocktail (OptiPhaseSuperMix; PerkinElmer, Waltham, MA, USA).

GLP-1R [3] = target: T1, GLP-1R; test: cell-based
Experimental: as §2

GLP-1R [4] = target: T1, GLP-1R; test: cell-based; remark: listed apart in the source
Experimental: as §1

GLP-1R C347F mutant [5] = target: T2, GLP-1R C347F mutant (Homo sapiens, UniProt P43220, C347F); test: Whole cell binding assay, competition with radiolabeled GLP-1 at mutant GLP-1R
T2 construct: expressed in transfected cells
T2 sequence (P43220 24-463 C347F): as the sequence (P43220 24-463) above, with C324F counted along it
Experimental: as §2

GLP-1R C347F mutant [6] = target: T2, GLP-1R C347F mutant; conditions: cited from earlier work
[7] = Table 3, PAMs from LBVS, relative to maximal response of GLP-1 at WT receptor
[8] = Table 3, PAMs, competition with 125I-GLP-1 (40 pM), whole cells
[9] = Table 4, analogues of new PAMs, competition with 125I-GLP-1
[10] = Table 1, NAMs from SBVS, relative to maximal response of GLP-1 at WT receptor
[11] = Table 1, NAMs, competition with 125I-GLP-1 (40 pM), whole cells

Compound: O=C(Cn1c(COc2ccccc2)nc2ccccc21)Nc1ccc(Cc2nnn[nH]2)cc1 [C10]
- cAMP Accumulation Emax (% WT) (GLP-1R [1]; [7]): 92.93 ± 4.4 % WT
- Binding Span ± SEM (GLP-1R [2]; [8]): 76.17 ± 16.21

Compound: CCOc1ccc(S(=O)(=O)Nc2ccccc2C(=O)OCC(=O)Nc2cc(C)on2)cc1 [C13]
- cAMP Accumulation Emax (% WT) (GLP-1R [1]; [7]): 76.6 ± 6.24 % WT

Compound: COc1ccccc1NS(=O)(=O)c1cc(NC(=O)c2ccc(=O)n(C)n2)ccc1N1CCCC1 [C22]
- cAMP Accumulation Emax (% WT) (GLP-1R [1]; [7]): 96.9 ± 4.56 % WT
- Binding Span ± SEM (GLP-1R [2]; [8]): −135.7 ± 8.4

Compound: COc1ccc(NC(=O)c2n[nH]c3ccc([N+](=O)[O-])cc23)cc1NS(=O)(=O)c1ccc(F)cc1 [C26]
- cAMP Accumulation Emax (% WT) (GLP-1R [1]; [7]): 89.4 ± 3.72 % WT
- Binding Span ± SEM (GLP-1R [2]; [8]): −82.09 ± 13.44

Compound: O=C(CSc1nnc[nH]1)Nc1sc2c(c1C(=O)NCc1ccccc1)CCCC2 [C31]
- cAMP Accumulation Emax (% WT) (GLP-1R [1]; [7]): 91.0 ± 0.95 % WT
- Binding Span ± SEM (GLP-1R [2]; [8]): −102.5 ± 6.85

Compound: Cc1ccc(NS(=O)(=O)c2ccc(NC(=O)c3n[nH]c4c3COc3ccccc3-4)cc2)cc1 [CD1652-A009]
- cAMP Accumulation Emax (% WT) (GLP-1R [1]; Table 4, analogues of new PAMs): 114.9 ± 8.6 % WT
- Binding Span ± SEM (GLP-1R [2]; [9]): 51.92 ± 9.60
- pIC50 (GLP-1R [3]): 5.39

Compound: CCC(C)N(CC(=O)N(Cc1cccn1Cc1ccccc1)C1CCCCC1)C(=O)C1CCC1 (stereo not drawn) [CD3532-B002]
- cAMP Accumulation Emax (% WT) (GLP-1R [1]; Table 4, analogues of new PAMs): 92.2 ± 3.9 % WT
- pEC50 (GLP-1R [4]): 4.80
- Binding Span ± SEM (GLP-1R [2]; [9]): N.B. ^c
- Binding pIC50 ± SEM (GLP-1R [2]; [9]): N.B. ^c

Compound: CCCCN(CC(=O)N(Cc1cccn1Cc1ccccc1)C1CC1)C(=O)C1CCCC1 [CD3559-D005]
- cAMP Accumulation Emax (% WT) (GLP-1R [1]; Table 4, analogues of new PAMs): 78.2 ± 13.6 % WT
- Binding Span ± SEM (GLP-1R [2]; [9]): 35.25 ± 11.50

Compound: COc1ccc(S(=O)(=O)Nc2cccc(C(=O)Nc3cc(C)on3)c2)cc1 [JK1719-D011]
- cAMP Accumulation Emax (% WT) (GLP-1R [1]; Table 4, analogues of new PAMs): 126.1 ± 4.2 % WT
- Binding Span ± SEM (GLP-1R [2]; [9]): 59.69 ± 15.13
- Effect on binding of GLP-1 to GLP-1R (in words) (GLP-1R [2]): weakened the ligand binding

Compound: CC(C)(C)Nc1nc2cc(Cl)c(Cl)cc2nc1S(C)(=O)=O [compound 2, 6,7-dichloro-3-methanesulfonyl-2-tert-butylamino-quinoxaline]
- Binding at C347F mutant (in words) (GLP-1R C347F mutant [6]): abolishment

Now from value to molecule:

- Modulation of GLP-1-elicited cAMP accumulation / GLP-1 potency (in words) (GLP-1R [1]): positively modulated GLP-1 potency
- Binding Span ± SEM (GLP-1R [2]; [8]): −46.37 ± 5.83
- pIC50 (GLP-1R [3]): 5.05
Compound: CN(CC(=O)N1CCC(C(=O)O)CC1)C(=O)c1cccn1CCc1ccccc1 [C11]

- Modulation of GLP-1-elicited cAMP accumulation / GLP-1 potency (in words) (GLP-1R [1]): positively modulated GLP-1 potency
- cAMP Accumulation Emax (% WT) (GLP-1R [1]; [7]): 98.5 ± 3.6 % WT
- pEC50 (GLP-1R [4]): 4.80
- Binding Span ± SEM (GLP-1R [2]; [8]): N.B. ^d
- Binding pIC50 ± SEM (GLP-1R [2]; [8]): N.B. ^d
Compound: Cc1ccc(-c2nn(-c3ccccc3)cc2C(=O)Nc2cccc(-n3cnnn3)c2)o1 [C23]

- Modulation of GLP-1-elicited cAMP accumulation / GLP-1 potency (in words) (GLP-1R [1]): negatively modulated
- cAMP Accumulation Emax (% WT) (GLP-1R [1]; [10]): 97.02 ± 0.81 % WT
- Binding Span ± SEM (GLP-1R [2]; [11]): 75.3 ± 12.57
- Effect on binding of GLP-1 to GLP-1R (in words) (GLP-1R [2]): decreased the binding of GLP-1 to GLP-1R
Compound: O=C(O)c1cccc(NN=Cc2cn(-c3ccccc3)nc2-c2cc3ccccc3o2)c1 [Z21]

- Modulation of GLP-1-elicited cAMP accumulation / GLP-1 potency (in words) (GLP-1R [1]): negatively modulated
- cAMP Accumulation Emax (% WT) (GLP-1R [1]; [10]): 99.72 ± 0.80 % WT
- Binding Span ± SEM (GLP-1R [2]; [11]): N.B. ^d
- Binding pIC50 ± SEM (GLP-1R [2]; [11]): N.B. ^d
- Binding at C347F mutant (in words) (GLP-1R C347F mutant [5]): enhanced the ligand binding
Compound: O=C(Nc1ccc(Cl)cc1)Nc1snnc1C(=O)Nc1ccc(C(=O)O)cc1 [Z42]
